Assay in all cases: relative viability (nuclei count vs DMSO), 5 days (fraction); higher = more cells survive
Compound in assay [1]: C1=CC2=C(C=C(C(=C2N=C1)O)N=NC3=CC4=C(C=C3)C=C(C=C4)S(=O)(=O)O)S(=O)(=O)O + CC(=O)Nc1cccc(-n2c(=O)n(C3CC3)c(=O)c3c(Nc4ccc(I)cc4F)n(C)c(=O)c(C)c32)c1 [Trametinib] (partner 0.02 µM)
A digest of the protocol:
(§1)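 Values are medians from duplicate plates. Each reflects relative viability, defined as the nuclei count of treated wells over that of vehicle wells. Lung cancer cell lines in 1536-well plates were pin-tool dosed one day after seeding with one drug alone or with a fixed anchor-drug dose plus five library-drug doses (not always all listed) in √10 steps, then fixed, stained and imaged at 4× after 5 days.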

Compound in assay [2]: O=C(NC1CCNCC1)c1n[nH]cc1NC(=O)c1c(Cl)cccc1Cl [AT-7519] + CC(C)C[C@H](NC(=O)[C@H](Cc1ccccc1)NC(=O)c1cnccn1)B(O)O [Bortezomib] (partner 0.002 µM)
An outline of the steps:
as §1

Compound in assay [3]: O=C(NC1CCNCC1)c1n[nH]cc1NC(=O)c1c(Cl)cccc1Cl [AT-7519] + CCNC(=O)c1noc(-c2cc(C(C)C)c(O)cc2O)c1-c1ccc(CN2CCOCC2)cc1 [Luminespib] (partner 0.01 µM)
An outline of the steps: as §1

Compound in assay [4]: O=C(NC1CCNCC1)c1n[nH]cc1NC(=O)c1c(Cl)cccc1Cl [AT-7519] + Nc1nc2[nH]cc(CCc3ccc(C(=O)N[C@@H](CCC(=O)O)C(=O)O)cc3)c2c(=O)[nH]1 [Pemetrexed] (partner 0.2 µM)
A digest of the protocol: as §1

For the cell line UMC-11, the relative viability was found to be 0.74 in assay [1] (first compound 0.08 µM); 0.777 in assay [1] (first compound 0.253 µM); 0.658 in assay [1] (first compound 0.8 µM); 0.728 in assay [1] (first compound 2.53 µM); 0.766 in assay [1] (first compound 8 µM); 1.03 in assay [2] (first compound 0.01 µM). In addition, the relative viability turned out to be 0.667 in assay [2] (first compound 0.03162 µM); 0.427 in assay [2] (first compound 0.3162 µM); 0.359 in assay [2] (first compound 1 µM); 1.06 in assay [3] (first compound 0.01 µM); 0.98 in assay [3] (first compound 0.03162 µM); 0.716 in assay [3] (first compound 0.3162 µM). The relative viability in assay [3] (first compound 1 µM) was found to be 0.394; in assay [4] (first compound 0.01 µM), 0.807; in assay [4] (first compound 0.03162 µM), 0.801; in assay [4] (first compound 0.3162 µM), 0.586; in assay [4] (first compound 1 µM) it was 0.331.

The record behind these values is the supplement of paper PMC10307832.
